Results taken from ChEMBL document CHEMBL5154886, “Novel Capsid Inhibitors for Treating HIV Infection” (ACS Med Chem Lett, 2022).

These compounds were tested on Human immunodeficiency virus 1 (assay: Antiviral activity against HIV-1 IIIB infected in human MT4 cells assessed as inhibition of viral replication measured after 5 days by Celltiter-Glo assay). Details: Human immunodeficiency virus 1, IIIB, MT4, 120 h.
Assay type: functional, organism-based

In order of falling EC50:
1. Cn1cc(-c2nc3nc([C@H](Cc4cc(F)cc(F)c4)NC(=O)Cn4nc(C(F)F)c5c4C(F)(F)[C@@H]4C[C@H]54)c(-c4ccc(Cl)c5c(NS(C)(=O)=O)nn(C)c45)cc3[nH]2)cn1  3 nM
2. Cc1nc2nc([C@H](Cc3cc(F)cc(F)c3)NC(=O)Cn3nc(C(F)(F)F)c4c3C(F)(F)[C@@H]3C[C@H]43)c(-c3ccc(Cl)c4c(NS(C)(=O)=O)nn(C)c34)cc2[nH]1  2.4 nM
3. COCc1nc2nc([C@H](Cc3cc(F)cc(F)c3)NC(=O)Cn3nc(C(F)(F)F)c4c3C(F)(F)[C@@H]3C[C@H]43)c(-c3ccc(Cl)c4c(NS(C)(=O)=O)nn(C)c34)cc2[nH]1  2.1 nM
4. Cc1nc2nc([C@H](Cc3cc(F)cc(F)c3)NC(=O)Cn3nc(C(F)F)c4c3C(F)(F)[C@@H]3C[C@H]43)c(-c3ccc(Cl)c4c(NS(C)(=O)=O)nn(C)c34)cc2[nH]1  1.6 nM
5. COCc1nc2nc([C@H](Cc3cc(F)cc(F)c3)NC(=O)Cn3nc(C(F)F)c4c3C(F)(F)[C@@H]3C[C@H]43)c(-c3ccc(Cl)c4c(NS(C)(=O)=O)nn(C)c34)cc2[nH]1  1.5 nM
6. Cn1nc(N)c2cccc(-c3cc4sc(N5CC(C)(O)C5)nc4nc3[C@H](Cc3cc(F)cc(F)c3)NC(=O)Cn3nc(C(F)F)c4c3C3CC3CC4)c21 (stereo partly specified)  1.3 nM
